Where “and” joins values, the source holds several entries; their conditions need not be identical. Identical values can stand only once. A value given as a limit tells only on which side of the number the result lay.

In the experiment the test system is 628569-122-R-J1-PDC complex spheroid viability. The experiment in a line: Anticancer human tumor 628569-122-R-J1-PDC patient-derived head and neck squamous carcinoma cell line growth inhibition [CLK]. The settings on record: for viability, T/C: stronger effect = lower value. The method, boiled down:
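Multi-cell-type spheroids combined patient-derived tumor cells with HUVEC endothelial cells and human mesenchymal stem cells. Paired agents were dosed in half-log steps down from about clinical Cmax, or from 10 microM where Cmax was unknown.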

The mark [1] stands for this setting: curve of first compound, second compound 0.0316 µM.
The mark [2] stands for this setting: curve of first compound, second compound 0.1 µM.
Where [3] appears, read: curve of first compound, second compound 0.316 µM.
Setting [4] is: curve of first compound, second compound 1 µM.
The mark [5] stands for this setting: curve of first compound, second compound 3.16 µM.
The mark [6] stands for this setting: curve of first compound, second compound 10 µM.
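Further: spheroids exposed to agents for seven days before readout.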
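Wherever viability, T/C is given: 100% = DMSO vehicle control viability.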

The IC50 is the concentration at which inhibition is half-maximal. As usually defined, the viability, T/C is the result in the treated group divided by that in the control group, in per cent. As for `Nc1ccn(C2OC(CO)C(O)C2(F)F)c(=O)n1` (stereo not given) + CNC(=O)c1ccc(Nc2nc(OC3CCCC3)c3c(-c4ccc5nc(C)oc5c4)c[nH]c3n2)c(OC)c1, the IC50 runs as follows: under setting [1], 200 nM; under setting [2], greater than 10000 nM; under setting [3], less than 31.6 nM; under setting [4], less than 31.6 nM; under setting [5], less than 31.6 nM; under setting [6], less than 31.6 nM. For the same compound, the viability, T/C was 65.9% (second compound 0.0316 µM, first compound 0.0316 µM); 51.8% (second compound 0.0316 µM, first compound 0.1 µM); 50.4% (second compound 0.0316 µM, first compound 0.316 µM); 40.7% (second compound 0.0316 µM, first compound 1 µM); 50.8% (second compound 0.0316 µM, first compound 3.16 µM); 51.8% (second compound 0.0316 µM, first compound 10 µM). Also, the viability, T/C (second compound 0.1 µM, first compound 0.0316 µM) was 53.1%; the viability, T/C (second compound 0.1 µM, first compound 0.1 µM) was 52.3%; the viability, T/C (second compound 0.1 µM, first compound 0.316 µM) was 49.5%; the viability, T/C (second compound 0.1 µM, first compound 1 µM) was 43.9%; the viability, T/C (second compound 0.1 µM, first compound 3.16 µM) is 57.2%; the viability, T/C (second compound 0.1 µM, first compound 10 µM) is 49.3%. Further, the viability, T/C (second compound 0.316 µM, first compound 0.0316 µM) was 49.9%; the viability, T/C (second compound 0.316 µM, first compound 0.1 µM) was 50.3%; the viability, T/C (second compound 0.316 µM, first compound 0.316 µM) is 50.5%; the viability, T/C (second compound 0.316 µM, first compound 1 µM) was 40.6%; the viability, T/C (second compound 0.316 µM, first compound 3.16 µM) is 47.3%; the viability, T/C (second compound 0.316 µM, first compound 10 µM) was 51.8%. Moreover, the viability, T/C is 43.2% (second compound 1 µM, first compound 0.0316 µM); 47% (second compound 1 µM, first compound 0.1 µM); 42.1% (second compound 1 µM, first compound 0.316 µM); 35.8% (second compound 1 µM, first compound 1 µM); 32.8% (second compound 1 µM, first compound 3.16 µM); 45.6% (second compound 1 µM, first compound 10 µM). Besides, the viability, T/C is, setting by setting: (second compound 3.16 µM, first compound 0.0316 µM) 45%; (second compound 3.16 µM, first compound 0.1 µM) 43.6%; (second compound 3.16 µM, first compound 0.316 µM) 38.2%; (second compound 3.16 µM, first compound 1 µM) 33.5%; (second compound 3.16 µM, first compound 3.16 µM) 50.3%; (second compound 3.16 µM, first compound 10 µM) 39.5%. Also, the viability, T/C reads like this: (second compound 10 µM, first compound 0.0316 µM) 49.3%; (second compound 10 µM, first compound 0.1 µM) 46.1%; (second compound 10 µM, first compound 0.316 µM) 39.5%; (second compound 10 µM, first compound 1 µM) 31.3%; (second compound 10 µM, first compound 3.16 µM) 36.6%; (second compound 10 µM, first compound 10 µM) 39.8%.
In the case of `COc1cccc2c1C(=O)c1c(O)c3c(c(O)c1C2=O)CC(O)(C(=O)CO)CC3OC1CC(N)C(O)C(C)O1` (stereo not given), the viability, T/C was 79.4% and 65.2% (compound 0.0316 µM); 51.3% and 43.7% (compound 0.1 µM); 107% and 88.3% (compound 0.316 µM); 31.9% and 12.3% (compound 1 µM); 12.3% and 14.2% (compound 3.16 µM); 4.08% and 10.9% (compound 10 µM). For the same compound, the IC50 (curve of compound) is 644 nM and 445 nM.
For the compound `CC1(C)CCC(CN2CCN(c3ccc(C(=O)NS(=O)(=O)c4ccc(NCC5CCOCC5)c([N+](=O)[O-])c4)c(Oc4cnc5[nH]ccc5c4)c3)CC2)=C(c2ccc(Cl)cc2)C1`, the viability, T/C is 96.8% and 88.2% (compound 0.0316 µM); 97.5% and 99.5% (compound 0.1 µM); 86.7% and 95.1% (compound 0.316 µM); 101% and 91.4% (compound 1 µM); 101% and 90.6% (compound 3.16 µM); 80.5% and 73.1% (compound 10 µM). For the same compound, the IC50 (curve of compound) is greater than 10000 nM.
As for `CC(C)CC(NC(=O)C(Cc1ccccc1)NC(=O)c1cnccn1)B(O)O` (stereo not given) + CNC(=O)c1ccc(Nc2nc(OC3CCCC3)c3c(-c4ccc5nc(C)oc5c4)c[nH]c3n2)c(OC)c1, the IC50 runs as follows: under setting [1], 4.63 nM; under setting [2], 2.65 nM; under setting [3], less than 0.949 nM; under setting [4], less than 0.949 nM; under setting [5], less than 0.949 nM; under setting [6], less than 0.949 nM. Moreover, the viability, T/C (second compound 0.0316 µM, first compound 0.000949 µM) is 106%; the viability, T/C (second compound 0.0316 µM, first compound 0.003 µM) is 73.5%; the viability, T/C (second compound 0.0316 µM, first compound 0.00949 µM) was 11.5%; the viability, T/C (second compound 0.0316 µM, first compound 0.03 µM) is 2.71%; the viability, T/C (second compound 0.0316 µM, first compound 0.0949 µM) was 11.1%; the viability, T/C (second compound 0.0316 µM, first compound 0.3 µM) was 7.23%. Besides, the viability, T/C is 67.5% (second compound 0.1 µM, first compound 0.000949 µM); 47.9% (second compound 0.1 µM, first compound 0.003 µM); 9.96% (second compound 0.1 µM, first compound 0.00949 µM); 3.01% (second compound 0.1 µM, first compound 0.03 µM); 8.44% (second compound 0.1 µM, first compound 0.0949 µM); 6.5% (second compound 0.1 µM, first compound 0.3 µM). The viability, T/C is, setting by setting: (second compound 0.316 µM, first compound 0.000949 µM) 48.9%; (second compound 0.316 µM, first compound 0.003 µM) 41.4%; (second compound 0.316 µM, first compound 0.00949 µM) 9.14%; (second compound 0.316 µM, first compound 0.03 µM) 2.35%; (second compound 0.316 µM, first compound 0.0949 µM) 4.07%; (second compound 0.316 µM, first compound 0.3 µM) 3.8%. Also, the viability, T/C runs as follows: (second compound 1 µM, first compound 0.000949 µM) 46.9%; (second compound 1 µM, first compound 0.003 µM) 29.3%; (second compound 1 µM, first compound 0.00949 µM) 4.76%; (second compound 1 µM, first compound 0.03 µM) 10.9%; (second compound 1 µM, first compound 0.0949 µM) 17.6%; (second compound 1 µM, first compound 0.3 µM) 13.2%. Besides, the viability, T/C is 46.5% (second compound 3.16 µM, first compound 0.000949 µM); 18% (second compound 3.16 µM, first compound 0.003 µM); 11.5% (second compound 3.16 µM, first compound 0.00949 µM); 21% (second compound 3.16 µM, first compound 0.03 µM); 9.26% (second compound 3.16 µM, first compound 0.0949 µM); 7.04% (second compound 3.16 µM, first compound 0.3 µM). Moreover, the viability, T/C (second compound 10 µM, first compound 0.000949 µM) is 44.6%; the viability, T/C (second compound 10 µM, first compound 0.003 µM) is 19.1%; the viability, T/C (second compound 10 µM, first compound 0.00949 µM) is 9.08%; the viability, T/C (second compound 10 µM, first compound 0.03 µM) is 7.35%; the viability, T/C (second compound 10 µM, first compound 0.0949 µM) is 11.3%; the viability, T/C (second compound 10 µM, first compound 0.3 µM) was 12.8%.
As for `CC(=O)O[C@H]1C(=O)[C@@]2(C)[C@H]([C@H](OC(=O)c3ccccc3)[C@]3(O)C[C@H](OC(=O)[C@H](O)[C@@H](NC(=O)c4ccccc4)c4ccccc4)C(C)=C1C3(C)C)[C@]1(OC(C)=O)CO[C@@H]1C[C@@H]2O`, the viability, T/C was 29.1% and 29.6% (compound 0.0316 µM); 30.8% and 26.9% (compound 0.1 µM); 27.4% and 26.9% (compound 0.316 µM); 27.5% and 24.6% (compound 1 µM); 27.2% and 33.9% (compound 3.16 µM); 44.5% and 41.1% (compound 10 µM). Also, the concentration for half-maximal inhibition (IC50) (curve of compound) is less than 31.6 nM.

The values above are taken from PubChem BioAssay AID2060611 (Molecular Pharmacology Branch, DTP, NCI, 2025).
